{"source": "patent US5153211A", "about": "“Spiro-tricyclicaromatic succinimide derivatives as inhibitors of aldose reductase” (Alcon Laboratories, Inc., priority 1991, dated 1992)", "key": {"[1]": {"biological_target": "T1, rat lens aldose reductase (Rattus norvegicus, UniProt P07943)", "T1 construct": "evaluated against rat lens aldose reductase; from tissue; host or cells: rat lens", "experiment": "inhibition of rat lens aldose reductase", "type": "biochemical", "protocol": "*IC50 values are based on inhibition of rat lens aldose reductase.\na) P. F. Kador, L. O. Merola and J. H. Kinoshita, Docum. Ophthal. Proc. Series, 18, 117-124 (1979);\nb) P. F. Kador, J. H. Kinoshita, W. H. Tung and L. T. Chylack, Jr., Invest. Ophthalmol. Vis. Sci., 19, 980-982 (1980);\nc) P. F. Kador, D. Carper and J. H. Kinoshita, Analytical Biochemistry, 114, 53-58 (1981).\nWherein the assay mixture used in the tests containing 0.1M potassium phosphate buffer, pH 6.2, 0.2 mM nictoinamide adenine dinucleotide phosphate (NADPH), 10 mM D,L-glyceraldehyde, and an appropriate volume of the enzyme preparation, thermostated at 25° C. in the cell compartment of a spectrophotometer. These conditions are identical to those published in references (a), (b) and (c), except that a larger NADPH concentration was employed. […] The control sample contained no added inhibitor. In order to measure aldose reductase inhibition activity, varying concentrations of the inhibitor examples set forth below were added to the standard incubation mixture. The control, containing the enzyme and NADPH, gave a very small, but measurable rate; thus, it served as the blank against which to measure the glyceraldehyde-dependent rate of NADPH oxidation. The tests were conducted with human placental aldose reductase enzyme. The results of the tests are the product of multiple assays. […] A test compound is considered active if it inhibits or reduces human aldose reductase activity at 1×10^-4 M concentration or less. The following list is provided as a representative sample of the biological activity of the spiro-tricyclic derivatives of the present invention.\nAccording to the procedures of Kador, Merola and Kinoshite, Docum. Ophthal. Proc. Series, 18 (1979) 117 and Kador and Sharpless, Biophysical Chemistry, 8 (1978) 81 the inhibition exerted by examples of the present invention where evaluated against rat lens aldose reductase. Otherwise, the inhibitor assay is identical to that employed against human aldose reductase in Example XXVI. Representative rat lens aldose reductase inhibition is presented in terms of the concentration of test compound required to reduce rat lens aldose reductase enzyme activity by 50%. A test compound is considered active if it inhibits or reduces rat lens aldose reductase activity at 1×10^-4 M concentration or less."}, "galactosemic rats": {"tested_on": "galactosemic rats", "settings": "per oral, once daily, cited from earlier work"}, "[2]": {"tested_on": "rat lenses in 30 mM xylose culture", "experiment": "rat lens culture assay, 30 mM xylose cataract model", "type": "cell-based, Sprague-Dawley rats", "settings": "for lens opacification / lens wet weight increase: 7.5×10^-7 M in the culture media, 30 mM xylose, 18 h; for activity at 0.75 µM: Rattus norvegicus, after 18 h 30 mM xylose culture, compound 7.5 × 10^-7 M, % of control contralateral lens", "protocol": "Aldose reductase inhibitor potency may be evaluated in rat lens culture assays where 30 mM of glucose, galactose or xylose can be used in culture to induce a `sugar` cataract. In addition to monitoring lens clarity, certain biochemical radiolabeled markers (e.g., choline --^3 H and ^86 Rb) are employed to measure lens function. See Obazawa, Merola and Kinoshita, Invest. Ophthalmol., 13 (1974) 204 and Jernigan, Kador and Kinoshita, Exp. Eye Res., 32 (1981) 709.\nThe general procedure is as follows: a) Sprague-Dawley rats of 75-100 g body weight are sacrificed and the lenses removed immediately; b) the contralateral lens of the pair of lenses is employed as untreated control lens; c) the test lens is cultured in TC-199 culture media in the presence of 30 mM xylose, 30 mM xylose plus a selected concentration of test compound or a selected concentration of test compound; d) the contralateral control lens is treated identical to the test lens except no test compound or xylose is included; e) the matched lens pairs are cultured for 18 h in a CO2 incubator; f) the lenses are compared morphologically and weighed. All lenses, control and test groups, are allowed to preincubate for 1 h in respective control media or drug control media prior to transfer to xylose media or xylose-drug media. In those cases where radiolabelled markers are to be measured, the lenses are treated as aforementioned except the radiolabelled marker(s) are added to the culture at four hours before harvesting. Radiolabelled markers include choline --^3 H ([…] available from New England Nuclear), AIBA --^14 C (α-[1-^14 C]-(CH3)2 C(NH2)COOH available from New England Nuclear) and ^86 Rb. The effect of xylose on lens uptake of ^86 Rb, lens uptake of amino acid (AIBA --^14 C) and lens uptake of choline --^3 H and the effectiveness of representative compounds of the present invention to preserve normal lens morphology is reported here.\nThe effect of 30 mM xylose and 30 mM xylose plus selected concentrations of test compound on radioactivity ratio is expressed as L/M % of control. L/M % of control is defined as the test lens radioactivity divided by culture media radioactivity as a percentage of the control contralateral lens radioactivity to media radioactivity ratio under identical test conditions but always without xylose or test compound in the control. The effect of 30 mM xylose in the culture media gives a reproducible deleterious effect on the lens as measured by the various L/M %. Furthermore, after incubation of the lens in 30 mM xylose in the TC-199 culture media, the lens gains 20% weight (mostly water weight increase based on dry lens weight measurements) and becomes opaque in the cortex of the lens. Each experiment requires 20-40 pairs of lenses to determine the potency of a selected aldose reductase inhibitor."}, "[3]": {"tested_on": "chronic streptozotocin-induced rats", "settings": "8 mg/kg per oral per day; cited from earlier work"}, "[4]": {"settings": "read-out: L/M% = Lens uptake of 86Rb"}, "[5]": {"settings": "read-out: L/M% = Lens uptake of AIBA-14C (amino acid)"}, "[6]": {"settings": "read-out: L/M% = Lens uptake of choline-3H"}, "[7]": {"settings": "based on inhibition of rat lens aldose reductase, read-out: IC50"}}, "note": "Where two headings read alike, the source gives them in different places.", "data": [{"smiles": "COc1cc(F)cc2c1-c1c(OC)cc(F)cc1C21NC(=O)NC1=O", "note": "[2,7-difluoro-4,5-dimethoxyspiro (9H-fluorene-9,4'-imidazolidine)-2',5'-dione]", "values": [{"measurement": "IC50", "setting": "[1]; based on the inhibition of rat lens aldose reductase, read-out: IC50 value", "value": 7.8, "unit": "nM"}]}, {"smiles": "O=C1NC(=O)C2(N1)c1cc(F)ccc1-c1ccc(F)cc12", "note": "[B, Spiro-(2,7-difluoro-9H-fluoren-9,4'-imidazolidine)-2',5'-dione, reference compound]", "values": [{"measurement": "preventing cataract in galactosemic rats", "setting": "galactosemic rats; 0.4 mg/kg", "value": "wholly effective"}, {"measurement": "lens opacification", "setting": "[2]", "value": "prevented"}, {"measurement": "lens wet weight increase", "setting": "[2]", "value": "prevented"}, {"measurement": "activity at 0.75 µM", "setting": "[2]; [4]", "value": 82, "unit": "%"}, {"measurement": "activity at 0.75 µM", "setting": "[2]; [5]", "value": 87, "unit": "%"}, {"measurement": "activity at 0.75 µM", "setting": "[2]; [6]", "value": 105, "unit": "%"}]}, {"smiles": "O=C1NC(=O)C2(S1)c1ccccc1-c1ccc(F)cc12", "note": "(centres unmarked) [C, Spiro-(2-fluoro-9H-fluoren-9,5'-thiazolidine)-2',4'-dione]", "values": [{"measurement": "lens opacification", "setting": "[2]", "value": "prevented"}, {"measurement": "lens wet weight increase", "setting": "[2]", "value": "prevented"}, {"measurement": "activity at 0.75 µM", "setting": "[2]; [4]", "value": 70, "unit": "%"}, {"measurement": "activity at 0.75 µM", "setting": "[2]; [5]", "value": 58, "unit": "%"}, {"measurement": "activity at 0.75 µM", "setting": "[2]; [6]", "value": 77, "unit": "%"}]}, {"smiles": "Cc1cc(F)cc2c1-c1ccc(F)cc1C21CC(=O)NC1=O", "note": "(centres unmarked) [Compound 3, 2,7-DIFLUORO-4-METHYLSPIRO[9H-FLUORENE-9,3'-PYRROLIDINE]-2',5'-DIONE]", "values": [{"measurement": "IC50", "setting": "[1]; [7]", "value": 2.8, "unit": "nM"}]}, {"smiles": "O=C1NC(=O)C2(S1)c1cc(F)cc(F)c1-c1c(F)cc(F)cc12", "note": "[Compound 7, 2,4,5,7-TETRAFLUOROSPIRO[9H-FLUORENE-9,5'-THIAZOLIDINE]-2',4'-DIONE]", "values": [{"measurement": "IC50", "setting": "[1]; [7]", "value": 17, "unit": "nM"}]}, {"smiles": "O=C1NC(=O)C2(N1)c1cc(F)cc(F)c1-c1c(F)cc(F)cc12", "note": "[Compound 9, 2,4,5,7-TETRAFLUOROSPIRO[9H-FLUORENE-9,4'-IMIDAZOLIDINE]-2',5'-DIONE]", "values": [{"measurement": "IC50", "setting": "[1]; [7]", "value": 12, "unit": "nM"}]}, {"smiles": "Cc1cc(F)cc2c1-c1ccc(F)cc1C21NC(=O)NC1=O", "note": "(centres unmarked) [Compound 11, 2,7-DIFLUORO-4-METHYLSPIRO[9H-FLUORENE-9,4'-IMIDAZOLIDINE]-2',5'-DIONE]", "values": [{"measurement": "IC50", "setting": "[1]; [7]", "value": 12.8, "unit": "nM"}]}, {"smiles": "COc1cc(F)cc2c1-c1ccc(F)cc1C21NC(=O)NC1=O", "note": "(centres unmarked) [Compound 16, 2,7-DIFLUORO-4-METHOXYSPIRO[9H-FLUORENE-9,4'-IMIDAZOLIDINE]-2',5'-DIONE]", "values": [{"measurement": "IC50", "setting": "[1]; [7]", "value": 9.4, "unit": "nM"}]}, {"smiles": "COc1cc(F)cc2c1-c1ccc(F)cc1C21CC(=O)NC1=O", "note": "(centres unmarked) [Compound 17, 2,7-DIFLUORO-4-METHOXYSPIRO[9H-FLUORENE-9,3'-PYRROLIDINE]-2',5'-DIONE]", "values": [{"measurement": "IC50", "setting": "[1]; [7]", "value": 4.8, "unit": "nM"}]}, {"smiles": "Cc1ccc2c(n1)-c1c(F)cc(F)cc1C21NC(=O)NC1=O", "note": "(centres unmarked) [Compound 22, 7,9-DIFLUORO-2-METHYLSPIRO[5H-INDENO[1,2-b]PYRIDIN-5,4'-IMIDAZOLIDINE]-2',5'-DIONE]", "values": [{"measurement": "IC50", "setting": "[1]; [7]", "value": 48, "unit": "nM"}]}, {"smiles": "COc1cc(F)cc2c1-c1c(F)cc(F)cc1C21NC(=O)NC1=O", "note": "(centres unmarked) [Compound 28, 2,4,7-TRIFLUORO-5-METHOXYSPIRO[9H-FLUORENE-9,4'-IMIDAZOLIDINE]-2',5'-DIONE]", "values": [{"measurement": "IC50", "setting": "[1]; [7]", "value": 11300, "unit": "nM"}]}, {"smiles": "CSc1cc(F)cc2c1-c1ccc(F)cc1C21NC(=O)NC1=O", "note": "(centres unmarked) [Compound 34, 2,7-DIFLUORO-4-METHYLTHIOSPIRO[9H-FLUORENE-9,4'-IMIDAZOLIDINE]-2',5'-DIONE]", "values": [{"measurement": "IC50", "setting": "[1]; [7]", "value": 17.5, "unit": "nM"}]}, {"smiles": "Cc1cc(F)cc2c1-c1ncc(F)cc1C21NC(=O)NC1=O", "note": "(centres unmarked) [Compound 43, 3,7-DIFLUORO-9-METHYLSPIRO[5H-INDENO[1,2-b]PYRIDIN-5,4'-IMIDAZOLIDINE]-2',5'-DIONE]", "values": [{"measurement": "IC50", "setting": "[1]; [7]", "value": 16.1, "unit": "nM"}]}, {"smiles": "O=C1NC(=O)C2(N1)c1ccccc1-c1ccc(F)cc12", "note": "(centres unmarked) [Compound A, Spiro-(-2-fluoro-9H-fluoren-9,4'-imidazolidine)-2',5'-dione, reference compound]", "values": [{"measurement": "preventing cataract in galactosemic rats", "setting": "galactosemic rats; 1.26 mg/kg", "value": "wholly effective"}, {"measurement": "lens opacification", "setting": "[2]", "value": "prevented"}, {"measurement": "lens wet weight increase", "setting": "[2]", "value": "prevented"}, {"measurement": "activity at 0.75 µM", "setting": "[2]; [4]", "value": 55, "unit": "%"}, {"measurement": "activity at 0.75 µM", "setting": "[2]; [5]", "value": 50, "unit": "%"}, {"measurement": "activity at 0.75 µM", "setting": "[2]; [6]", "value": 73, "unit": "%"}, {"measurement": "cataract in chronic streptozotocin-induced rats", "setting": "[3]", "value": "prevent cataract"}, {"measurement": "motor nerve conduction velocity in chronic streptozotocin-induced rats", "setting": "[3]", "value": "significantly preserve"}]}, {"smiles": "O=C1NC(=O)C2(S1)c1cc(F)ccc1-c1ccc(F)cc12", "note": "[D, Spiro-(2,7-difluoro-9H-fluoren-9,5'-thiazolidine)-2',4'-dione]", "values": [{"measurement": "lens opacification", "setting": "[2]", "value": "prevented"}, {"measurement": "lens wet weight increase", "setting": "[2]", "value": "prevented"}, {"measurement": "activity at 0.75 µM", "setting": "[2]; [4]", "value": 83, "unit": "%"}, {"measurement": "activity at 0.75 µM", "setting": "[2]; [5]", "value": 85, "unit": "%"}, {"measurement": "activity at 0.75 µM", "setting": "[2]; [6]", "value": 109, "unit": "%"}]}]}
